Results: PMC10700596 (Nature Communications, 2023)
“And” between values parts separate entries of the source, which are not always exact repeats. Identical values can stand only once. “Also recorded” adds a separate entry of the source. Like-named read-outs stand apart in the source and are kept apart here.

What was measured:
[1] = molecular target: FLT3 (Homo sapiens, UniProt P36888); assay: biochemical; format: binding; settings: 10000 nM; read-out: Percent Control
[2] = molecular target: T1, RSK2(Kin.Dom.1-N-terminal) (Homo sapiens, UniProt P51812); assay: KINOMEscan; format: binding
T1 construct: RSK2(Kin.Dom.1-N-terminal); purchased Eurofins DiscoverX KINOMEscan (scanEDGE, 97 kinases)

[3] = molecular target: ABL1(T315I)-phosphorylated (Homo sapiens, UniProt P00519, T315I); assay: biochemical; format: binding; settings: 10000 nM; read-out: Percent Control
[4] = molecular target: ALK (Homo sapiens, UniProt Q9UM73); assay: biochemical; format: binding; settings: 10000 nM; read-out: Percent Control
[5] = molecular target: EP3R (Homo sapiens, UniProt P43115); assay: Radioligand (3H-PGE2) displacement assay at EP3R; format: binding
[6] = molecular target: AURKB (Homo sapiens, UniProt Q96GD4); assay: biochemical; format: binding; settings: 10000 nM; read-out: Percent Control
Text: (§1) (1 picture or pasted object on this page, not shown here)

[7] = molecular target: JNK3 (Homo sapiens, UniProt P53779); assay: biochemical; format: binding; settings: 10000 nM; read-out: Percent Control
[8] = molecular target: T2, EP4R (Homo sapiens, UniProt P35408); assay: biochemical; format: binding; settings: 3H-PGE2; read-out: Radiologand displacement Ki
T2 construct: Tango fusion cassette (only 'tango' is printed); expressed in transfected cells; host or cells: HTLA cells (tTA-dependent luciferase reporter, β-arrestin2-TEV fusion)

[9] = molecular target: T3, COX-1 (Homo sapiens, UniProt P23219); assay: COX-1 inhibition (Eurofins item 4173); format: biochemical
T3 construct: purchased Eurofins item 4173
Text: . […] This panel includes several adverse drug reaction receptors such as the serotonin receptor 5HT2b, M1 and M2 muscarinic receptors and adrenergic receptors. […]. page 7:
Supplementary Figure 7: Non-GPCR off-target screening for 74. a)-e) Dose-response curves of 74 at […]
proliferator-activated receptor gamma (PPARγ, Eurofins item G124). Data in a)-e) and g)-i) represent two technical replicates. Source data are provided as a Source Data file.
as §1

[10] = molecular target: BMPR2 (Homo sapiens, UniProt Q13873); assay: biochemical; format: binding; settings: for Signal (qPCR): BMPR2
Text: Supplementary Figure 7: Non-GPCR off-target screening for 74. a)-e) Dose-response curves of 74 at
proliferator-activated receptor gamma (PPARγ, Eurofins item G124). Data in a)-e) and g)-i) represent two
technical replicates. Source data are provided as a Source Data file.

[11] = system: mice; format: in vivo; settings: for CFA-induced allodynia, mechanical threshold (von Frey): individual animals
[12] = molecular target: EP2R (Homo sapiens, UniProt P43116); assay: Radioligand (3H-PGE2) displacement assay at EP2R; format: binding
[13] = molecular target: IKK-beta (Homo sapiens, UniProt O14920); assay: biochemical; format: binding; settings: 10000 nM; read-out: Percent Control
[14] = molecular target: FGFR3 (Homo sapiens, UniProt P22607); assay: biochemical; format: binding; settings: 10000 nM; read-out: Percent Control
[15] = molecular target: AURKA (Homo sapiens, UniProt O14965); assay: biochemical; format: binding; settings: 10000 nM; read-out: Percent Control
[16] = 10000 nM, read-out: Percent Control

T3 sequence (P23219 24-599): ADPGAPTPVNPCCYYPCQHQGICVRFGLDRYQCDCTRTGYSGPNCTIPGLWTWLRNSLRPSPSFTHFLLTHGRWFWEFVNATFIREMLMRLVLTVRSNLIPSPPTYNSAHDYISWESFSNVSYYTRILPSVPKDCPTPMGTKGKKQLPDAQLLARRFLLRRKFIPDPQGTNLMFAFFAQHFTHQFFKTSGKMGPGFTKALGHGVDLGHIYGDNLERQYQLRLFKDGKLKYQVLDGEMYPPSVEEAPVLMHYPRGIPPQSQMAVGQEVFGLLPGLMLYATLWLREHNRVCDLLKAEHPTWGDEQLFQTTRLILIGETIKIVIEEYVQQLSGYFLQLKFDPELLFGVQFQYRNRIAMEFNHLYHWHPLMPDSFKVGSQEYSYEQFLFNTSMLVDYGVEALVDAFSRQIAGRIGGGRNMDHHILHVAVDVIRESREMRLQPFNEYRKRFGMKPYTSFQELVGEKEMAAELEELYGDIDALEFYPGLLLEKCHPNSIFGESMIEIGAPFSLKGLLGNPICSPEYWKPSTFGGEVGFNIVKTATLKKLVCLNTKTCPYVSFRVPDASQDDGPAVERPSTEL
Chain of BMPR2 (Q13873 27-1038): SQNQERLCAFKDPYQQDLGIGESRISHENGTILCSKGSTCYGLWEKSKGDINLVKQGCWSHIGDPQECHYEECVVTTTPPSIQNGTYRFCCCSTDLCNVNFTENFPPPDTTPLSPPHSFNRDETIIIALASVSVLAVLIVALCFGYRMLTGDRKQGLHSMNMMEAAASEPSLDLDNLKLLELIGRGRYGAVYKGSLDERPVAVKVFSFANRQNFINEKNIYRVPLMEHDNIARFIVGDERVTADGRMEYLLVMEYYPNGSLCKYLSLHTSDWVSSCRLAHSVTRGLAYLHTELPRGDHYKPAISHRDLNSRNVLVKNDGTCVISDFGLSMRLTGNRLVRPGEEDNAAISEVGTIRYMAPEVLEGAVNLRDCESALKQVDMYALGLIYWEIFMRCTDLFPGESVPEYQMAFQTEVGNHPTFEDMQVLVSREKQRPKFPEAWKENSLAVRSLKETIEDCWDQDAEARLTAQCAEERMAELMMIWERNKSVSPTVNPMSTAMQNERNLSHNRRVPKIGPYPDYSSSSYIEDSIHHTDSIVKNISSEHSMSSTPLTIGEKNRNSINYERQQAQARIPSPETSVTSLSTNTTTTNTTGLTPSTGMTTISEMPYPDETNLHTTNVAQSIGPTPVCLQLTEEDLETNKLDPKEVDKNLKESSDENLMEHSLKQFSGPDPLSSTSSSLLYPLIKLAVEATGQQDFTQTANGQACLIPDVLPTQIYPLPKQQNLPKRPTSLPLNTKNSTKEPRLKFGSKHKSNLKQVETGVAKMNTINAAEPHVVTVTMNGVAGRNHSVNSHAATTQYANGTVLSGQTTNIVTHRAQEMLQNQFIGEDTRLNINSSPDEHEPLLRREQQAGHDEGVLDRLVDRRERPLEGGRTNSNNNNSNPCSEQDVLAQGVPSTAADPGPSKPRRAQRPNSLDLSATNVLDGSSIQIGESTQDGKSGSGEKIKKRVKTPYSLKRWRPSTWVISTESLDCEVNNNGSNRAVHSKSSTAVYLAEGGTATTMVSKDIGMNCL
T1 sequence (P51812 1-397 limits assumed): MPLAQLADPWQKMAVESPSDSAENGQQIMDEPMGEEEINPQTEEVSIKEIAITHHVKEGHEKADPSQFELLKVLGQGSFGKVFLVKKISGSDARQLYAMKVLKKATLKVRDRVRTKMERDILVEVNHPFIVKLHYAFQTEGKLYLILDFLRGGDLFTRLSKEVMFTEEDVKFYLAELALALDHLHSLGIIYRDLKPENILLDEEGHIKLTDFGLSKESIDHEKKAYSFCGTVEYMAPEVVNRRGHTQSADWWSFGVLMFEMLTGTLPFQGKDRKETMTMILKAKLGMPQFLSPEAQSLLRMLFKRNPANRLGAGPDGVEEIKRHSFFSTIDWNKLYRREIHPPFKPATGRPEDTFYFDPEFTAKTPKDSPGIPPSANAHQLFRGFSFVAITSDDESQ
Chain of AURKA (O14965 whole entry): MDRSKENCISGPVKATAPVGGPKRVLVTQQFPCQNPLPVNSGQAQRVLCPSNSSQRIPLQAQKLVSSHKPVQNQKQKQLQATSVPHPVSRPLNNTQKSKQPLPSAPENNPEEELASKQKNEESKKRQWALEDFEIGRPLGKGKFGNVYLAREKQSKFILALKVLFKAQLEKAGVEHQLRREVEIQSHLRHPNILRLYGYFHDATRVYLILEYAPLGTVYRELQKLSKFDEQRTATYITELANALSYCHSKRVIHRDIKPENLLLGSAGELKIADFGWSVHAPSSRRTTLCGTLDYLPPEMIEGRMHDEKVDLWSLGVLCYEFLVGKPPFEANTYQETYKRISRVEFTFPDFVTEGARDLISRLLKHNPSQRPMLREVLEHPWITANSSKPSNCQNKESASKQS
Chain of EP2R (P43116 whole entry): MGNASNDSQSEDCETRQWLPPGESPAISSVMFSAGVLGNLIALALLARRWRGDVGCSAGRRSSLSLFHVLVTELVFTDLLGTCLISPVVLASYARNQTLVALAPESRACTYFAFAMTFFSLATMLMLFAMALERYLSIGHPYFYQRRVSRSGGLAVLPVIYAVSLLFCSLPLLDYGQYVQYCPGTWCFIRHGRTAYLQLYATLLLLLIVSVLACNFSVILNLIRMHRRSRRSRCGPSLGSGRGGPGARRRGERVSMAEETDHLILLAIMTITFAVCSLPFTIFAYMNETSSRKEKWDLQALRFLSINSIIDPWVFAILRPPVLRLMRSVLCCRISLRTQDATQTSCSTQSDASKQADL
Chain of EP3R (P43115 whole entry): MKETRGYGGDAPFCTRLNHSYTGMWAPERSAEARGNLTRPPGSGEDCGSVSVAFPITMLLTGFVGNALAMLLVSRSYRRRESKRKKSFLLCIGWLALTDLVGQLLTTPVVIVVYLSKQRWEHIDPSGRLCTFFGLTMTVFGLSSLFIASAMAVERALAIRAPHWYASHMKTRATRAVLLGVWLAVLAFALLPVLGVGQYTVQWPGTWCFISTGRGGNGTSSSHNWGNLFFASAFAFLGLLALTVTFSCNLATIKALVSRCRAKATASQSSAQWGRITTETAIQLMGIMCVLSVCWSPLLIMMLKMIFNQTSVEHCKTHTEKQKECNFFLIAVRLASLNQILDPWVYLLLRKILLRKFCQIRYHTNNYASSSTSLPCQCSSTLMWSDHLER
Chain of FGFR3 (P22607 23-806): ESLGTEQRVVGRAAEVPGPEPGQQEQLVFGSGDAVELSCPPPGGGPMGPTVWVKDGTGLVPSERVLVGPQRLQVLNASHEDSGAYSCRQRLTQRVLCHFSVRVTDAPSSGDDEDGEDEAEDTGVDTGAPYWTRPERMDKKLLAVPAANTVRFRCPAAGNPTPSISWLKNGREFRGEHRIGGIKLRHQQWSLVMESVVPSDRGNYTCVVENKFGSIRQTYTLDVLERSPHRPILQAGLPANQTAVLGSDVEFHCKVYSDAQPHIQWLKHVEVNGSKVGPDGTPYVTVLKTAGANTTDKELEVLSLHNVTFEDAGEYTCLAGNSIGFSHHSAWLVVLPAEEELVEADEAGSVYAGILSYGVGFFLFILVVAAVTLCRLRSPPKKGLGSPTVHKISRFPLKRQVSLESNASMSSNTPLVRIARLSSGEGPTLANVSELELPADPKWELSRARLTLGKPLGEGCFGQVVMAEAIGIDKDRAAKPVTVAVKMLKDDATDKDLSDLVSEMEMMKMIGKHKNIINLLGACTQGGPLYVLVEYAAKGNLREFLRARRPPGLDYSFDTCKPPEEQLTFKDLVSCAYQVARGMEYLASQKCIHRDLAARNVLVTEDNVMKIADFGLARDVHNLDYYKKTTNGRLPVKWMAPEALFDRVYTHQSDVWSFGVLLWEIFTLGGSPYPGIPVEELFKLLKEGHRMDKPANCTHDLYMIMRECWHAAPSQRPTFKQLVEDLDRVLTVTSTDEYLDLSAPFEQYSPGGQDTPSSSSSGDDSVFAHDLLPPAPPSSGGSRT
Chain of JNK3 (P53779 whole entry): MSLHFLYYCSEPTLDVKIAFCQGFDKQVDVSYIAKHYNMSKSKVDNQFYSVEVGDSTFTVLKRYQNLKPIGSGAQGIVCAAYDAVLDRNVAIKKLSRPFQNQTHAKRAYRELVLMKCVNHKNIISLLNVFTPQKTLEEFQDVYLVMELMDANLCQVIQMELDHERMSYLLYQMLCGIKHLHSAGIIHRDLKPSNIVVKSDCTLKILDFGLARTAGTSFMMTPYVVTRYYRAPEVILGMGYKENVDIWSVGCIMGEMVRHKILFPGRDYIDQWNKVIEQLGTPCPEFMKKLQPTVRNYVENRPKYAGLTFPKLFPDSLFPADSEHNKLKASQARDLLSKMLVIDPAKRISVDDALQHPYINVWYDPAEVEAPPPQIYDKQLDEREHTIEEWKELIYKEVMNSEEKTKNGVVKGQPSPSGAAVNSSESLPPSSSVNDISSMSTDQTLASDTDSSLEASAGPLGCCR
T2 sequence (P35408 whole entry, the tested form may be a part): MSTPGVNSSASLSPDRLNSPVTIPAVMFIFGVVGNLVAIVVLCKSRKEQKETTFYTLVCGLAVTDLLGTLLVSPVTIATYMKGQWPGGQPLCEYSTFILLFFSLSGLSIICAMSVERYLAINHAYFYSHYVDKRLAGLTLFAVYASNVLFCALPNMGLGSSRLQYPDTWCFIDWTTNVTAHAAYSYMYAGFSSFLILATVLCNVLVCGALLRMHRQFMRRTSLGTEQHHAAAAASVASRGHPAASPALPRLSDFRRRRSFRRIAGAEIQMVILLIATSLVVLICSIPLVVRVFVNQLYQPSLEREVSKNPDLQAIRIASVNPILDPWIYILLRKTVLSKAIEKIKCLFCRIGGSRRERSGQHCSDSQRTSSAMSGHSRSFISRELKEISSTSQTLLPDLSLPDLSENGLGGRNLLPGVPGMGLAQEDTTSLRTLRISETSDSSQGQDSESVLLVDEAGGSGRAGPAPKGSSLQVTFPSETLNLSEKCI

For O=C(O)C1CCC2(CC1)CC(Nc1ncnc3[nH]c4c(F)cccc4c13)C2 (centres unmarked) [Compound 74, OC(=O)C1CCC2(CC(C2)NC=3N=CN=C4NC=5C(F)=CC=CC5C34)CC1], the remaining activity at 10 µM [1] was 26%, the remaining binding at 10 µM [2, 16] was 0.25% and the “Signal (qPCR)” value ([2]; RSK2, [Compound] 0.0001 nM) was 4.94e-6 and 4.75e-6. For the same compound, the “Signal (qPCR)” value ([2]; RSK2, [Compound] 0.01 nM) was 3.91e-6 and 4.73e-6, the “Signal (qPCR)” value ([2]; RSK2, [Compound] 0.169 nM) was 4.25e-6 and 3.92e-6 and the “Signal (qPCR)” value ([2]; RSK2, [Compound] 0.508 nM) was 4.17e-6 and 4.75e-6. For the same compound, the “Signal (qPCR)” value ([2]; RSK2, [Compound] 1.52 nM) was 4.57e-6 and 4.32e-6, the “Signal (qPCR)” value ([2]; RSK2, [Compound] 4.57 nM) was 4.65e-6 and 4.1e-6 and the “Signal (qPCR)” value ([2]; RSK2, [Compound] 13.7 nM) was 3.9e-6 and 3.53e-6. For the same compound, the “Signal (qPCR)” value ([2]; RSK2, [Compound] 41.2 nM) was 3.36e-6 and 3.55e-6, the “Signal (qPCR)” value ([2]; RSK2, [Compound] 123 nM) was 3.09e-6 and 2.73e-6 and the “Signal (qPCR)” value ([2]; RSK2, [Compound] 370 nM) was 2.17e-6 and 2e-6. For the same compound, the “Signal (qPCR)” value ([2]; RSK2, [Compound] 3330 nM) was 5.93e-7 and 5.31e-7, the “Signal (qPCR)” value ([2]; RSK2, [Compound] 10000 nM) was 2.67e-7 and 3.25e-7 and the remaining activity at 10 µM [3] was 82%. For the same compound, the remaining activity at 10 µM [4] was 14%, the “binding to EP3 receptor” value [5] was “no binding” and the remaining activity at 10 µM [6] was 8.2%. The remaining activity at 10 µM [7] was 40%, the Ki [8] was 366 nM and the “inhibitory / off-target activity at COX-1” value ([9]; 3 µM) was “no off-target activity; also recorded: no inhibitory activity”. The “%Inhibition of Control Values” ([9]; COX-1, 3 µM, technical replicates) was -5.7% and -9.9%, the remaining activity at 10 µM [10, 16] was 0% and the Kd ([10]; BMPR2, dose-response) was 30 nM. The “Signal (qPCR)” value ([10]; compound 1e-5 nM) was 3.65e-5 and 5.32e-5, the “Signal (qPCR)” value ([10]; compound 0.0001 nM) was 5.46e-5 and 5.63e-5 and the “Signal (qPCR)” value ([10]; compound 0.001 nM) was 6.07e-5 and 6.11e-5. For the same compound, the “Signal (qPCR)” value ([10]; compound 0.169 nM) was 4.64e-5 and 4.8e-5, the “Signal (qPCR)” value ([10]; compound 0.508 nM) was 4.94e-5 and 5.14e-5 and the “Signal (qPCR)” value ([10]; compound 1.52 nM) was 5.5e-5 and 5.39e-5. The “Signal (qPCR)” value ([10]; compound 4.57 nM) was 5.07e-5 and 5.31e-5, the “Signal (qPCR)” value ([10]; compound 13.7 nM) was 3.76e-5 and 3.48e-5 and the “Signal (qPCR)” value ([10]; compound 41.2 nM) was 2.19e-5 and 2.2e-5. For the same compound, the “Signal (qPCR)” value ([10]; compound 123 nM) was 7.98e-6 and 7.65e-6, the “Signal (qPCR)” value ([10]; compound 370 nM) was 1.69e-6 and 1.57e-6 and the “Signal (qPCR)” value ([10]; compound 3330 nM) was 4.07e-8 and 4.89e-8. For the same compound, the “Signal (qPCR)” value ([10]; compound 10000 nM) was 1.28e-8 and 1.26e-8, the “CFA-induced allodynia, mechanical threshold (von Frey)” value ([11]; 10 mg/kg IP, day 3) was 31.5 and 39 and 36.3 and 64.2 and 20.2 and the “CFA-induced allodynia, mechanical threshold (von Frey)” value ([11]; 30 mg/kg IP, day 4) was 35.4 and 28.1 and 62 and 31.3 and 22.9. The “effect on CFA-induced mechanical allodynia” value ([11]; 10 and 30 mg/kg i.p.) was “significantly decreased; also recorded: reduced”, the “binding to EP2 receptor” value [12] was “no binding” and the remaining activity at 10 µM [13] was 3.2%. The remaining activity at 10 µM [14] was 81% and the remaining activity at 10 µM [15] was 22%.
